Literature values as cited in patent US20070036839A1, “Phosphorylated glucomannane polysaccharides containing 1-6 and 1-2 linkages increase weight gain in poultry” (priority 2005, published 2007).

Test system: macrophages
Details: single low dose by intramuscular injection; cited from earlier work

For Acemannan [ACM 1], the activation of macrophages is given as “systemic immuno-modulated activation of macrophages”.
